What was measured:
Experiment in all cases: PPAR activation in vitro, mammalian-one-hybrid (M1H) GAL4-PPAR-LBD luciferase reporter assay
Type in all cases: cell-based
PPARα = molecular target: T1, PPARα (Homo sapiens, UniProt Q07869); settings: for PPARα Efficacy: HEK293 cells, efficacy of positive control (GW7647) set to 100%; for EC50: transiently transfected HEK293 cells, compound incubation 16-20 h, six concentrations in duplicate
T1 construct: expressed in transfected cells; host or cells: HEK293
T1 sequence (Q07869 239-466 limits assumed): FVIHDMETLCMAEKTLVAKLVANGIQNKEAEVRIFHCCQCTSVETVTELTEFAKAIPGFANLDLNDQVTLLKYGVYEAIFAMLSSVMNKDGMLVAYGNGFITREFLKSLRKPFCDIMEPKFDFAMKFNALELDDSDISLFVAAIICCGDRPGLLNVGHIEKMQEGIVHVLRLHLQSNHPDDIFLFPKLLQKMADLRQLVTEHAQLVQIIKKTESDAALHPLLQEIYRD
Procedure: (§1) The assays were carried out in vitro using mammalian-one-hybrid assays (M1H) comprising GAL4-DNA binding domain-PPAR-LBD fusion constructs in conjunction with 5×GAL4-sites driven Photinus pyralis luciferase reporter constructs in transiently transfected HEK293 cells.
(§2) The cells were transfected 4-6 h and grown overnight before compounds were added. Compound incubation was 16-20 h.
(§3) Renilla reniformis luciferase, driven by a constitutive promoter, was included as internal control to improve experimental accuracy.
(§4) The compounds (A-C) and a positive control were tested at six different concentrations in duplicate. The positive controls were GW7647 (PPARα), GW501516 (PPARδ) and rosiglitazone (PPARγ). The efficacy of the controls were set to 100%.

PPARγ = molecular target: T2, PPARγ (Homo sapiens, UniProt P37231); settings: for PPARγ Efficacy: HEK293 cells, efficacy of positive control (rosiglitazone) set to 100%; for EC50: transiently transfected HEK293 cells, compound incubation 16-20 h, six concentrations in duplicate
T2 construct: expressed in transfected cells; host or cells: HEK293
T2 sequence (P37231 238-503 limits assumed): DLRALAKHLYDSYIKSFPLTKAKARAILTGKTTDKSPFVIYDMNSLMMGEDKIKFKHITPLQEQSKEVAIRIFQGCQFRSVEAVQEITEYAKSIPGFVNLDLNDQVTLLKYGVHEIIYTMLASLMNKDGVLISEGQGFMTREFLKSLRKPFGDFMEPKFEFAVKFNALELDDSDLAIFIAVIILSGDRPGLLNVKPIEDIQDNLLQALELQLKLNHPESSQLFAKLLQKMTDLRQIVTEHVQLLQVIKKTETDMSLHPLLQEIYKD
Procedure: as §1, §2, §3, §4

PPARδ = molecular target: T3, PPARδ (Homo sapiens, UniProt Q03181); settings: for PPARδ Efficacy: HEK293 cells, efficacy of positive control (GW501516) set to 100%; for PPARδ EC50: transiently transfected HEK293 cells, compound incubation 16-20 h, six concentrations in duplicate
T3 construct: expressed in transfected cells; host or cells: HEK293
T3 sequence (Q03181 211-439 limits assumed): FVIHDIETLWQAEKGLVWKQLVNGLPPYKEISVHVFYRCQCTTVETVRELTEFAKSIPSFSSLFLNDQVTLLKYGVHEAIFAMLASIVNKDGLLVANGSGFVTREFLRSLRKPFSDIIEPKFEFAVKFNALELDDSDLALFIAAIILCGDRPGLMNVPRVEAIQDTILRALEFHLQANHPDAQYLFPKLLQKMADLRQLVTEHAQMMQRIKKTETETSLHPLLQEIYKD
Procedure: as §1, §2, §3, §4

CC/C=C\C/C=C\C/C=C\C/C=C\C/C=C\CCCCOC(CC)C(=O)O (stereo not drawn) [A]
PPARα Efficacy (PPARα): 82% | EC50 (PPARα): 307 nM | PPARγ Efficacy (PPARγ): 22% | EC50 (PPARγ): 806 nM | PPARδ Efficacy (PPARδ): inactive | PPARδ EC50 (PPARδ): inactive

CC/C=C\C/C=C\C/C=C\C/C=C\C/C=C\CCCCO[C@@H](CC)C(=O)O [B]
PPARα Efficacy (PPARα): 86% | EC50 (PPARα): 405 nM | PPARγ Efficacy (PPARγ): 27% | EC50 (PPARγ): 644 nM | PPARδ Efficacy (PPARδ): inactive | PPARδ EC50 (PPARδ): inactive

CC/C=C\C/C=C\C/C=C\C/C=C\C/C=C\CCCCO[C@H](CC)C(=O)O [C]
PPARα Efficacy (PPARα): 54% | EC50 (PPARα): 167 nM | PPARγ Efficacy (PPARγ): 25% | EC50 (PPARγ): 515 nM | PPARδ Efficacy (PPARδ): inactive | PPARδ EC50 (PPARδ): inactive

Source: US8735436B2, “Polyunsaturated fatty acids for the treatment of diseases related to cardiovascular, metabolic and inflammatory disease areas” (Pronova Biopharma Norge AS, priority 2009, dated 2014)
